Consider 8 molecules from patent publication US10772967B2, “Enhanced anticancer agent” (priority 2014, dated 2020).

Each structure is given as a SMILES string. Where two headings read alike, the source gives them in different places.

Series [1] is described as follows: Dose escalation of AG10 in rats, plasma concentration. The note with it: i.v., initial rapid decline of total plasma concentration.
Experimental: Adult male Wistar rats, body weight ranging 160-200 g, were used for the study. […] Blood samples were collected at 0.08, 2, 4, 8, and 24 hour time intervals. The plasma samples were prepared by centrifugation at 15,000 RPM for 5 min. The resultant plasma was precipitated using 2× solvent B (95:5, Methanol-Water, 0.1% TFA).
Series [2] has as its system T1, trypsin.
T1 construct: purchased Gibco TrypLE Express
In words: Trypsin cleavage experiment in buffer, 7-AMC release. The series is classed as biochemical. The conditions noted are these: hTTR present. On the procedure:
We used trypsin to test the ability of hTTR to protect TLHE1-peptide conjugate (Conj1) from proteolysis in buffer. FIG. 14 illustrates the protection effect of binding to TTR on the stability of Conj1 in vitro. hTTR protects Conj1 against trypsin hydrolysis in buffer, according to some embodiments.
AFU is arbitrary fluorescence units.
The experiment was performed in quadruplicate.

Series [3] can be described thus: Stability against proteolytic hydrolysis in human serum. The conditions noted are these: human serum pre-incubated with AG10 (10 μM).
Text: The amounts of compounds remaining in serum were quantitated at different time-points.
A short description of series [4]: Pharmacokinetic profile of Conj3 and Conj4 in rats. The conditions noted are these: i.v.
Experimental: (§1) The concentration of test compounds in plasma was determined using validated HPLC method and plotted as a function of time after dosing. Concentrations are expressed as means (±SEM).
(§2) Jugular vein cannulated Sprague-Dawley male rats (200-220 g, 49-52 days old) were used for this study. An extension catheter was attached to the indwelling jugular vein cannula to facilitate remote sampling. The animals were randomly divided into two groups (N=3 or 4): control group and treatment group. […] Simultaneously, the control group was pretreated with vehicle (sterile water) followed by a single combined intravenous dose of molar equivalent of all test compounds as described above. Plasma was collected from each rat and precipitated using 2× solvent B (95:5, Methanol-Water, 0.1% TFA).
For series [5] the following is noted: rat, in vivo, iv.
Experimental: as §1, §2
Series [6] can be described thus: Chemical stability in serum and simulated gastric acid. The series is classed as in vitro ADME. The conditions noted are these: at least 48 h. The text has this:
Therefore, TLHE1 is a very good candidate for conjugation to peptides.

T1 sequence (P35049 25-248): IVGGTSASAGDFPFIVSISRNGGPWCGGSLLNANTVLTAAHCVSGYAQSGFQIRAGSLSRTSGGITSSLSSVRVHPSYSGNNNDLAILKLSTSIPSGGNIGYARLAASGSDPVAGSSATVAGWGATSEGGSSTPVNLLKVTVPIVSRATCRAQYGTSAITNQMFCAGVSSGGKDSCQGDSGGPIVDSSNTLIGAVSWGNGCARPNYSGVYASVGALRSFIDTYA

For `Cc1n[nH]c(C)c1CCCOc1cc(C(=O)O)ccc1F` [AG10], the initial half-life in series [1] fell in the range of 5 to 20 min.

Take `Cc1cc(=O)oc2cc(NC(=O)C(CCCCN)NC(=O)CNC(=O)C(CCCNC(=N)N)NC(=O)CCOCCOCCOCCN=[N+]=[N-])ccc12` (stereo not drawn) [Arg-Gly-Lys-MCA]: in series [2], the “protection against proteolysis in the presence of hTTR (in words)” value is “no protection against proteolysis”. For `CC[C@H](C)[C@H](NC(=O)[C@H](Cc1ccc(O)cc1)NC(=O)[C@@H]1CCCN1C(=O)[C@H](CCCNC(=N)N)NC(=O)[C@H](CCCNC(=N)N)NC(=O)[C@@H]1CCCN1C(=O)[C@H](CCCCN)NC(=O)[C@H](CC(N)=O)NC(=O)[C@H](CCC(=O)O)NC(=O)[C@H](Cc1ccc(O)cc1)NC(=O)[C@H](CC(C)C)NC(=O)[C@H](CCC(=O)O)NC(=O)CCOCCOCCOCCn1cc(CCCOc2cc(OCCCc3c(C)n[nH]c3C)cc(C(=O)O)c2)nn1)C(=O)N[C@@H](CC(C)C)C(=O)O` [Conj2], the “amount remaining after 24 h in serum pre-incubated with AG10” value in series [3] (24 h) was “no detectable amount”. Turning to `Cc1n[nH]c(C)c1CCCOc1cc(OCCCc2cn(CCOCCOCCOCCC(=O)NC(CCC(=O)O)C(=O)NC(Cc3c[nH]cn3)C(=O)NC(Cc3c[nH]c4ccccc34)C(=O)NC(CO)C(=O)NC(Cc3ccc(O)cc3)C(=O)NCC(=O)NC(CC(C)C)C(=O)NC(CCCNC(=N)N)C(=O)N3CCCC3C(=O)NCC(N)=O)nn2)cc(C(=O)O)c1` (centres unmarked) [Conj3], the “amount remaining after 48 h in serum pre-incubated with AG10” value in series [3] (48 h) is on record as “no detectable amount”. As for `Cc1n[nH]c(C)c1CCCOc1cc(OCCCc2cn(CCOCCOCCOCCC(=O)NCCCCC(NC(=O)C(Cc3ccc(O)cc3)NC(=O)C(CO)NC(=O)C(Cc3c[nH]c4ccccc34)NC(=O)C(Cc3c[nH]cn3)NC(=O)C3CCC(=O)N3)C(=O)NC(CC(C)C)C(=O)NC(CCCNC(=N)N)C(=O)N3CCCC3C(=O)NCC(N)=O)nn2)cc(C(=O)O)c1` (centres unmarked) [Conj4], in series [4], the “time present in circulation” value is recorded as “at least 12 h”. For `CC(C)C[C@H](NC(=O)[C@@H](CCCCN)NC(=O)[C@H](Cc1ccc(O)cc1)NC(=O)[C@H](CO)NC(=O)[C@H](Cc1c[nH]c2ccccc12)NC(=O)[C@H](Cc1cnc[nH]1)NC(=O)[C@@H]1CCC(=O)N1)C(=O)N[C@@H](CCCNC(=N)N)C(=O)N1CCC[C@H]1C(=O)NCC(N)=O` [GnRH-A, reference compound], the “plasma levels after 2 h of administration” value in series [4] was “no detectable levels”. `CC(C)C[C@H](NC(=O)[C@@H](CCCCNC(=O)CCOCCOCCOCCN=[N+]=[N-])NC(=O)[C@H](Cc1ccc(O)cc1)NC(=O)[C@H](CO)NC(=O)[C@H](Cc1c[nH]c2ccccc12)NC(=O)[C@H](Cc1c[nH]cn1)NC(=O)[C@@H]1CCC(=O)N1)C(=O)N[C@@H](CCCNC(=N)N)C(=O)N1CCC[C@H]1C(=O)NCC(N)=O` [GnRH-A-Linker]: in series [5], the “plasma levels after 2 h of administration” value was “no detectable levels”. In series [6], `C#CCCCOc1cc(OCCCc2c(C)n[nH]c2C)cc(C(=O)O)c1` [TLHE1, 3-(3-(3,5-dimethyl-1H-pyrazol-4-yl)propoxy)-5-(pent-4-yn-1-yloxy)benzoic Acid] showed a degradation below 3%.
